Assay results: patent US6004976A, “Thrombin inhibitors” (Merck & Co., Inc., priority 1998, dated 1999)

Target: T1, human α-thrombin (Homo sapiens, UniProt P00734)
T1 construct: human α-thrombin
Experiment: In vitro assay for determining proteinase inhibition (thrombin)
Type: biochemical
Conditions: 25° C., 0.05 M TRIS buffer pH 7.4, 0.15 M NaCl, 0.1% PEG
Method: In Vitro Assay for Determining Proteinase Inhibition
Assays of human α-thrombin and human trypsin were performed at 25° C. in 0.05 M TRIS buffer pH 7.4, 0.15 M NaCl, 0.1% PEG. Trypsin assays also contained 1 mM CaCl2.
In assays wherein rates of hydrolysis of a p-nitroanilide (pna) substrate were determined, a Thermomax 96-well plate reader was used to measure (at 405 nm) the time dependent appearance of p-nitroaniline. sar-PR-pna (sarcosine-Pro-Arg-p-nitroanilide) was used to assay human α-thrombin (Km=125 μM) and human trypsin (Km=59 μM). p-Nitroanilide substrate concentration was determined from measurements of absorbance at 342 nm using an extinction coefficient of 8270 cm-1M-1.
In certain studies with potent inhibitors (Ki<10 nM) where the degree of inhibition of thrombin was high, a more sensitive activity assay was employed. In this assay the rate of thrombin catalyzed hydrolysis of the fluorogenic substrate Z-GPR-afc (Cbz-Gly-Pro-Arg-7-amino-4-trifluoromethylcoumarin) (Km=27 μM) was determined from the increase in fluorescence at 500 nm (excitation at 400 nm) associated with production of 7-amino-4-trifluoromethyl coumarin. Concentrations of stock solutions of Z-GPR-afc were determined from measurements of absorbance at 380 nm of the 7-amino-4-trifluoromethyl coumarin produced upon complete hydrolysis of an aliquot of the stock solution by thrombin.
Activity assays were performed by diluting a stock solution of substrate at least tenfold to a final concentration≤0.5 Km into a solution containing enzyme or enzyme equilibrated with inhibitor. Times required to achieve equilibration between enzyme and inhibitor were determined in control experiments. Initial velocities of product formation in the absence (Vo) or presence of inhibitor (Vi) were measured. Assuming competitive inhibition, and that unity is negligible compared Km/[S], [I]/e, and [I]/e (where [S], [I], and e respectively represent the total concentrations, of substrate, inhibitor and enzyme), the equilibrium constant (Ki) for dissociation of the inhibitor from the enzyme can be obtained from the dependence of Vo/Vi on [I] shown in equation 1.

| SMILES | Ki [nM] |
| --- | --- |
| Cc1nc(N)ccc1CNC(=O)Cn1c(C)cc2c([nH]c(=O)n2CCc2ccccc2)c1=O | < 10 |
| Cc1nc(N)ccc1CNC(=O)Cn1c(C)cc2c([nH]c(=O)n2CCc2ccccn2)c1=O | < 10 |
| Cc1nc(N)ccc1CNC(=O)Cn1c(C)cc2c([nH]c(=O)n2CC2CCCCC2)c1=O | > 10 |
| Cc1nc(N)ccc1CNC(=O)Cn1c(C)cc2c([nH]c(=O)n2CCC(C)(C)C)c1=O | > 10 |
| Cc1nc(N)ccc1CNC(=O)Cn1c(C)cc2c([nH]c(=O)n2[C@H](C)c2ccccc2)c1=O | > 10 |
| Cc1nc(N)ccc1CNC(=O)Cn1c(C)cc2c([nH]c(=O)n2CC2CC2)c1=O | > 10 |
| Cc1nc(N)ccc1CNC(=O)Cn1c(C)cc2c([nH]c(=O)n2CCC(C)C)c1=O | < 10 |
| Cc1cc2c([nH]c(=O)n2CCC(C)C)c(=O)n1CC(=O)NCc1ccccc1OCC(=O)NC1CC1 | > 10 |
